This is an account of results in patent US6369251B1, “Method for purification of polyprenyl compounds” (Nikken Chemicals Co., Ltd., priority 1999, dated 2002).

The subject of one data set is hepatic carcinoma. Conditions: known from literature; cited from earlier work.
The nature of data set [1]: Determination of peroxide value by the British Pharmacopeia method (iodometric titration). Format: physicochemical. To be noted: sample after recrystallization; about 1 g sample, titration with sodium thiosulfate. Here is the method:
The results of purities and determined peroxide values of (2E, 4E, 6E, 10E)-3,7,11,15-tetramethyl-2,4,6,10,14-hexadecapentaenoic acid obtained in Example 1 and Reference Example 3 are shown in Table 1.
The determination of the peroxide values was performed by the method described in the British Pharmacopeia. About 1 g of each sample was accurately weighed in a stoppered Erlenmeyer flask, and the sample was added with chloroform (15 mL) and dissolved. The solution was added with acetic acid (20 mL), and the mixture was shaken gently. Air in the flask was sufficiently substituted with argon atmosphere, and the mixture was added with 1 mL of saturated potassium iodide solution prepared just before use, and the mixture was left stand for 10 minutes in a dark place. Then, the mixture was added with 30 mL of water and shaken vigorously. The liberated iodine was titrated with […] sodium thiosulfate solution (indicator: 2 mL of the starch test solution). The titration was terminated when the purplish red color of the solution disappeared. Correction was made by performing a blank test in the same manner.
The peroxide value was calculated by using the following equation.
Peroxide value (meq/kg)=10f(a−b)/Sampled weight (g) a: Titration volume (mL) of 0.01 mol/L Na2S2O3 solution b: Titration volume (mL) of 0.01 mol/L Na2S2O3 solution in the blank test f: Factor of 0.01 mol/L Na2S2O3 solution

`CC(C)=CCC/C(C)=C/CC/C(C)=C/C=C/C(C)=C/C(=O)O` [(2E, 4E, 6E, 10E)-3,7,11,15-Tetramethyl-2,4,6,10,14-hexadecapentaenoic acid]: in the data set on hepatic carcinoma, the “effect on recurrence of hepatic carcinoma” value is listed as “suppressing effect on recurrence of hepatic carcinoma”.

In data set [1], `CC(C)=CCC/C(C)=C/CC/C(C)=C/C=C/C(C)=C/C(=O)O` [Example 1, (2E, 4E, 6E, 10E)-3,7,11,15-tetramethyl-2,4,6,10,14-hexadecapentaenoic acid] registered a Peroxide value of 0 meq/kg.

Turning to `CC(C)=CCC/C(C)=C/CC/C(C)=C/C=C/C(C)=C/C(=O)O` [Reference Example 3, (2E, 4E, 6E, 10E)-3,7,11,15-tetramethyl-2,4,6,10,14-hexadecapentaenoic acid], in data set [1], the Peroxide value was determined as 3.0 meq/kg.
